Series [1] deals with Voltage-gated inwardly rectifying potassium channel KCNH2 (Homo sapiens, UniProt Q12809). Description: Displacement of [3H]-dofetilide in human hERG expressed in CHO cells by proximity assay. Type of series: cell-based. In general terms: In a radioligand displacement assay an active substance lowers the binding of a labelled ligand.
Another series relates to Liver microsomes. Put plainly: Intrinsic clearance in human liver microsomes. Type of series: ADME, Microsome. In general terms: Liver microsomes are vesicles of endoplasmic reticulum, rich in cytochrome P450 enzymes.
The target in series [2] is T1, 5-hydroxytryptamine receptor 1D (Homo sapiens, UniProt P28221). Description: Intrinsic activity at human 5-HT1D receptor expressed in CHO cells assessed as effect on GTPgammaS binding by scintillation proximity assay relative to 5HT. Type of series: functional, cell-based. For orientation: GTPγS is a poorly hydrolysed GTP analogue; its binding reports G protein activation.
T1 sequence (P28221 whole entry): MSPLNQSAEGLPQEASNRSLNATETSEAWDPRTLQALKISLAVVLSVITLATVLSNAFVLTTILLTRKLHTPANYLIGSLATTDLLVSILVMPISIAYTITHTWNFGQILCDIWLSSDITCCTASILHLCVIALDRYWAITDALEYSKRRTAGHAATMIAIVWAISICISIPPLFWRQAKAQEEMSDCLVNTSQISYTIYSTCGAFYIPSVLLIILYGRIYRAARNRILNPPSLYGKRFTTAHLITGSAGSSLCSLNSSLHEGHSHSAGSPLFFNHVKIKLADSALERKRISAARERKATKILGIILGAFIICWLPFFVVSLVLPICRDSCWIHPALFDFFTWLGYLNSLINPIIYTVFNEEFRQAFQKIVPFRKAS

A short description of series [3]: Blood clearance in rat at 0.5 mg/kg, iv and 1 mg/kg, po. It counts as ADME, organism-based. Conditions: whole blood.
For series [4], the target named is T1, 5-hydroxytryptamine receptor 1D. Description: Antagonist activity at human 5-HT1D receptor expressed in CHO cells assessed as inhibition of GTPgammaS binding by scintillation proximity assay. Type of series: functional, cell-based.
The nature of series [5]: Ratio of drug level in brain to blood in rat at 0.5 mg/kg, iv and 1 mg/kg, po. It counts as ADME, organism-based. The settings on record: brain / whole blood.
Series [6] addresses T2, 5-hydroxytryptamine receptor 1B (Homo sapiens, UniProt P28222). Put plainly: Intrinsic activity at human 5-HT1B receptor expressed in CHO cells assessed as effect on GTPgammaS binding by scintillation proximity assay relative to 5HT. Type of series: functional, cell-based.
Series [7] is described as follows: Oral bioavailability in rat at 1 mg/kg. It counts as ADME, organism-based. Conditions: in vivo.
Series [8] addresses T3, 5-hydroxytryptamine receptor 1A (Homo sapiens) (UniProt P08908).
T3 sequence (whole entry): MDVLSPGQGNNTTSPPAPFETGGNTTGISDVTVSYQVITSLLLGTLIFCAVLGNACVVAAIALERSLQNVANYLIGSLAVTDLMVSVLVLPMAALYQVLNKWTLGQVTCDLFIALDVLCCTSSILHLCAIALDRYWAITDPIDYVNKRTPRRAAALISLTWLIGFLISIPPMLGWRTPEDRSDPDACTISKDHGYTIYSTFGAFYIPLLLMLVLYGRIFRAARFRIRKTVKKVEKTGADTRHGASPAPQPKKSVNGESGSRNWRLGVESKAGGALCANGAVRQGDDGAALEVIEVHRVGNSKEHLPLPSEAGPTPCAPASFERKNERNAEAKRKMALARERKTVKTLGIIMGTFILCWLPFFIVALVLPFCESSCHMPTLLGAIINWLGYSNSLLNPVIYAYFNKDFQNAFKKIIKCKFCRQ
Put plainly: Intrinsic activity at human 5-HT1A receptor expressed in HEK293 cells assessed as effect on GTPgammaS binding by scintillation proximity assay relative to 5HT. Type of series: functional, cell-based.

The nature of series [9]: Half life in rat at 0.5 mg/kg, iv and 1 mg/kg, po. Type of series: ADME, organism-based. Conditions: in vivo.
For series [10], the target named is Sodium-dependent serotonin transporter (Homo sapiens, UniProt P31645). Put plainly: Displacement of [3H]-citalopram in human SERT expressed in LLCPK cells by filtration assay. It counts as cell-based.
Sodium-dependent serotonin transporter, sequence (P31645 whole entry): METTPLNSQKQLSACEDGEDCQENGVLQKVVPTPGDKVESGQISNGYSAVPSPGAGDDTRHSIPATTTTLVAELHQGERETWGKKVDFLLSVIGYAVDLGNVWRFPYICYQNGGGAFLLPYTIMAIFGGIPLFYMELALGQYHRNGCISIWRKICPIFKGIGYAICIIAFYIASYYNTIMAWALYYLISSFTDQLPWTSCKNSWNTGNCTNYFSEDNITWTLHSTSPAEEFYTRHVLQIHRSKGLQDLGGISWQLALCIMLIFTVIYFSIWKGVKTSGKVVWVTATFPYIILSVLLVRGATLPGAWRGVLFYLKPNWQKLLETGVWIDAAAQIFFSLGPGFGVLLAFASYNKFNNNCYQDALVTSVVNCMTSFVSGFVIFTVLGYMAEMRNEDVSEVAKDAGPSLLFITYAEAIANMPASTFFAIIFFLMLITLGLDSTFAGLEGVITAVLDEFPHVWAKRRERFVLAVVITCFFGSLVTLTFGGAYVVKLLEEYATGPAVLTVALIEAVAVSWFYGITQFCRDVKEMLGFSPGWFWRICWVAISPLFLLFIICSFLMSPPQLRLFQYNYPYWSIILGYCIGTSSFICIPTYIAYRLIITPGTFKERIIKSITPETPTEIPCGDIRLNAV
The target in series [11] is T4, 5-hydroxytryptamine receptor 1A (Homo sapiens, UniProt P08908).
T4 sequence (P08908 whole entry): T3 sequence (whole entry)
Description: Antagonist activity at human 5-HT1A receptor expressed in HEK293 cells assessed as inhibition of GTPgammaS binding by scintillation proximity assay. It counts as functional, cell-based.

Series [12] has as its target T2, 5-hydroxytryptamine receptor 1B. Put plainly: Agonist activity at human 5-HT1B receptor expressed in CHO cells assessed as stimulation of GTPgammaS binding by scintillation proximity assay. Type of series: functional, cell-based.
The nature of series [13]: Volume of distribution at steady state in rat at 0.5 mg/kg, iv and 1 mg/kg, po. Type of series: ADME, organism-based. The settings on record: in vivo, read-out: Vdss.
In series [14] the target is T1, 5-hydroxytryptamine receptor 1D. Put plainly: Agonist activity at human 5-HT1D receptor expressed in CHO cells assessed as stimulation of GTPgammaS binding by scintillation proximity assay. Type of series: functional, cell-based.
The target of series [15] is T4, 5-hydroxytryptamine receptor 1A. Description: Agonist activity at human 5-HT1A receptor expressed in HEK293 cells assessed as stimulation of GTPgammaS binding by scintillation proximity assay. Type of series: functional, cell-based.
Series [16] concerns the target T2, 5-hydroxytryptamine receptor 1B. Put plainly: Antagonist activity at human 5-HT1B receptor expressed in CHO cells assessed as inhibition of GTPgammaS binding by scintillation proximity assay. It counts as functional, cell-based.

Each structure is given as a SMILES string.

Voltage-gated inwardly rectifying potassium channel KCNH2, sequence (Q12809 whole entry): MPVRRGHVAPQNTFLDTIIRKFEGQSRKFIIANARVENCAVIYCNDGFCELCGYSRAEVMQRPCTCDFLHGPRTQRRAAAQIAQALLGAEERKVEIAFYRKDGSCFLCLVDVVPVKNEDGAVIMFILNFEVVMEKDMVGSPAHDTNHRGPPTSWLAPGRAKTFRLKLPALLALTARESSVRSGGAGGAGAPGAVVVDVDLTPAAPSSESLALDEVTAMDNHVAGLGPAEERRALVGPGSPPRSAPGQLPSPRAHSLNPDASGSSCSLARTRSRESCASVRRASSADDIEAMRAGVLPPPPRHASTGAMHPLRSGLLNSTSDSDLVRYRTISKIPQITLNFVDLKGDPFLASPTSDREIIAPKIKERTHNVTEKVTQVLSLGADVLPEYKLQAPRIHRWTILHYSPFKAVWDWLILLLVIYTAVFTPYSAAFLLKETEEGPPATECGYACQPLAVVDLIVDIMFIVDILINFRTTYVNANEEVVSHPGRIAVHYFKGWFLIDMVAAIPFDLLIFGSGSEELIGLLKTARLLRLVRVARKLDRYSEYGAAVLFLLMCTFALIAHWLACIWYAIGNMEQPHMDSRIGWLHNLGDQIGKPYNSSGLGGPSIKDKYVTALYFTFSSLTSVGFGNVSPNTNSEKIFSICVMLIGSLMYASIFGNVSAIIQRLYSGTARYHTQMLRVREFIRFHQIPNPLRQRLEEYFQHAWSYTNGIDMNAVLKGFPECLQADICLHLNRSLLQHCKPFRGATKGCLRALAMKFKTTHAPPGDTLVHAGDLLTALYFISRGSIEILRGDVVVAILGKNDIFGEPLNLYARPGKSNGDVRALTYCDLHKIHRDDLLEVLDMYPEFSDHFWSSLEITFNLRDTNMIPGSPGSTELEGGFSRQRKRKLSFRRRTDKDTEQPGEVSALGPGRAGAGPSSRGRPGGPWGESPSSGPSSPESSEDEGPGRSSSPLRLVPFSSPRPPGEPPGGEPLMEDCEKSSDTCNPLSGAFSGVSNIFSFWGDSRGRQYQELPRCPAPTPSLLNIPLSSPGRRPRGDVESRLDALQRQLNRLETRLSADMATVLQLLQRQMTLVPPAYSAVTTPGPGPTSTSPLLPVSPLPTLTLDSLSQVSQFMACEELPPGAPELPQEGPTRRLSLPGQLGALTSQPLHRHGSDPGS
T2 sequence (P28222 whole entry): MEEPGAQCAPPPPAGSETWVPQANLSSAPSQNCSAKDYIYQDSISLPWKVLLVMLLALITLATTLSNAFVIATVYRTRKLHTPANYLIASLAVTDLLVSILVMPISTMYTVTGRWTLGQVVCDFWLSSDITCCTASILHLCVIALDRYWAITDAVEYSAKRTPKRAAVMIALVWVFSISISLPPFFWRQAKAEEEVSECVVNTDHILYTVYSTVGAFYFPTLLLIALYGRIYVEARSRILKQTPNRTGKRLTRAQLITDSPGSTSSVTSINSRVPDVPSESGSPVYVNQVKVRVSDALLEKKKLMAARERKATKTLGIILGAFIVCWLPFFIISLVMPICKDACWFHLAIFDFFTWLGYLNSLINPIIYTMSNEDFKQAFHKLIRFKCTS

With `Cc1ccc2c(N3CCN(CCc4c(C)ccc5c4ccc(=O)n5C)CC3)cccc2n1`, the Ki (commonly a dissociation constant, usually derived from enzyme kinetics or from competition with a known ligand) is 3980 nM in series [1], 2 nM in series [4], 12.6 nM in series [10] and 0.631 nM in [11]. The molecule also had a CL with Liver microsomes of 1.5 mL/min/g. For the same molecule, the Intrinsic activity came to 0 in series [2], 0.4 in series [6] and 0 in series [8]. Moreover, in [3], the clearance stood at 28 mL/min/kg. The Kp – broadly, tissue or fluid exposure divided by exposure in the circulation – in series [5] came to 0.5. Besides, in series [7], the bioavailability (as a rule, dose-corrected exposure relative to a reference, in per cent) is 88%. In [9], the half-life – broadly, the time in which the quantity being followed falls by half – was 1.1 h. Further, in series [12], the concentration for a half-maximal effect (EC50) (as a rule, the concentration needed to bring the measured effect to its halfway point) was 63.1 nM. Also, in series [13], the Vd amounted to 2.3 L/kg.
Take `Cc1ccc2c(N3CCN(CCc4cccc5c4ccc(=O)n5C)CC3)cccc2n1`: the figures for the Ki in [1], in series [10] and in series [16] were 10000 nM, 2.51 nM and 0.794 nM, respectively. For the same molecule, in the series with Liver microsomes, the CL was found to be 1.2 mL/min/g. The Intrinsic activity in series [2] was found to be 0.7; in series [6], 0; in series [8], 0.4. Besides, the EC50 in series [14] was 1 nM; in series [15], 0.0316 nM. For the same molecule, the clearance in series [3] was 32 mL/min/kg. The Kp in series [5] came out at 1.1. In series [7], the bioavailability came to 37%. In addition, the half-life in series [9] is 1.3 h. Further, in series [13], the Vd stood at 2.1 L/kg.
Consider `Cc1ccc2c(N3CCN(CCc4c(C)ccc5c4CCC(=O)N5)CC3)cccc2n1`, for which the Ki in series [1] was 3980 nM; in series [10] it was 50.1 nM; in series [11], 0.794 nM. The molecule also showed a CL in the series with Liver microsomes of less than 0.5 mL/min/g. In addition, the Intrinsic activity in series [2] amounted to 0.5; in series [6], 0.4; in [8] it was 0.3. Besides, the EC50 was 5.01 nM in [14] and 200 nM in series [12]. In series [3], this molecule showed a clearance of 7 mL/min/kg. Moreover, in [5], the Kp is 0.8. The molecule further came in with a bioavailability in series [7] of 73%. In series [9], this molecule gave a half-life of 5.4 h. Besides, the Vd in [13] stood at 3 L/kg.
On to `Cc1ccc2c(N3CCN(CCc4c(C)ccc5c4CCC(=O)N5C)CC3)cccc2n1`, for which the Ki in series [1] was 794 nM; in [4], 1 nM; in series [10], 25.1 nM; in series [11], 0.631 nM. Moreover, in the series with Liver microsomes, the CL turned out to be 1.3 mL/min/g. The Intrinsic activity came to 0 in series [2], 0.4 in [6] and 0 in series [8]. The molecule also showed a clearance in [3] of 9 mL/min/kg. Further, in series [5], the Kp was 0.4. This molecule had a bioavailability in series [7] of 83%. The molecule also had a half-life in [9] of 3 h. In addition, the EC50 in series [12] was 398 nM. For the same molecule, the Vd in series [13] came out at 2 L/kg.

For the origin of these results see ChEMBL document CHEMBL1287678, “5-{2-[4-(2-methyl-5-quinolinyl)-1-piperazinyl]ethyl}-2(1H)-quinolinones and 3,4-dihydro-2(1H)-quinolinones: dual-acting 5-HT1 receptor antagonists and serotonin reuptake inhibitors. Part 3” (Bioorg Med Chem Lett, 2010).
